Data: patent US10323000B2, “Indole derivatives and their use in neurodegenerative diseases” (priority 2014, dated 2019)
pIC50: −log10 of the molar value. Where two headings read alike, the source gives them in different places.

Legend:
[1] = biological target: human P2X7 receptor (Homo sapiens (Human), UniProt Q99572); assay: Pore permeation assay (YO PRO dye uptake); format: cell-based
Method: Agonist-induced pore formation was determined by measuring cellular uptake of YO PRO fluorescence dye in HEK293 transfected with human P2X7 receptor. A HEK293 cell over expressing human P2X7 was harvested using HQTase reagent to detach the cells from T75 cm flask. The harvested cells are centrifuged @1200 rpm for 5 min at room temperature. The viability of cells was determined by Trypan blue dye and the cells are plated @10,000 cell/well in 50 ul volume in a 384W BD Poly lysine coated plate and incubated overnight at 37 C. […] The plate was centrifuged at 1000 rpm for 5 seconds and incubated at room temperature for 30 minutes. The uptake of YO PRO dye into the cells was measured using Envision Fluorescence plate reader instrument (Perkin Elmer).

[2] = biological target: P2X7 (IL-1β release from THP-1 cells) (Homo sapiens (Human), UniProt Q99572); assay: IL-1β release assay; format: cell-based
P2X7 (IL-1β release from THP-1 cells), sequence (Q99572 whole entry): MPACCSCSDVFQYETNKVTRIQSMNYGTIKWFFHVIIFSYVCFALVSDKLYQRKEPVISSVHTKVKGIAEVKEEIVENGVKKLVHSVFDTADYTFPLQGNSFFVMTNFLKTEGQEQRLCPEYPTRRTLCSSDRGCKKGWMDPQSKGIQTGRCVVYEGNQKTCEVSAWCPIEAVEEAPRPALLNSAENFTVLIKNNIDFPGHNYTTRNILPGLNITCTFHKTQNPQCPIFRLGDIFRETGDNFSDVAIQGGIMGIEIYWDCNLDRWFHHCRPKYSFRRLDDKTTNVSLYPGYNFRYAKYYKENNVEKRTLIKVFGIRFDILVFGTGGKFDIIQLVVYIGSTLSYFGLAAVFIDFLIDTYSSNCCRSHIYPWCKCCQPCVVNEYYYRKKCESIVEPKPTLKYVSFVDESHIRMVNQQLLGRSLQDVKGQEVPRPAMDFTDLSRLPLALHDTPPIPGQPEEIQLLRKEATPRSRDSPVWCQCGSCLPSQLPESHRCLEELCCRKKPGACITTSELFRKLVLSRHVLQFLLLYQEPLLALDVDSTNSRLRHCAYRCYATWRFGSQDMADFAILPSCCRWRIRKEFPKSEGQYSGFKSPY
Method: IL-1β release assay: The activation of P2X7 by ATP leads to a fast transient activation of cells resulting in influx of Ca^2+ followed by conversion of pro-IL-1β to active IL-1β. The functional activity of P2X7 compounds was measured by the release of mature […] in the culture medium of THP-1 cells, detected by sandwich ELISA. […] THP-1 cells were harvested from the flask in 50 ml by centrifugation for 3 min at 100 g. The cells were resuspended to 2×10^5 cells/ml in medium supplemented with 0.5 μM PMA and incubated. The cells were washed and resuspended to 1.5×10^5 cells/ml in medium complemented with 10 ng/ml LPS, and the cells were primed for 4 h at 37° C., 5% CO2. After addition of 20 μL of prediluted test compounds, blank, standard and control reagents, cells were incubated for a further 20 min at 37° C. and stimulated with 0.8 mM BzATP for 30 minutes. The cells were centrifuged, supernatant was collected and the presence of mature IL-1β was detected using Dual human IL-1b kit following manufacturer's instruction. The tetrahydrobenzodiazepine analogs effectively modulated the activity of P2X7 in the cells as measured by the levels of pro-inflammatory cytokine IL-1β, which is released by the activation of P2X7 receptor.

[3] = HEK293 transfected with human P2X7, BzATP 10 uM, YO PRO dye uptake, read-out: hP2X7 IC50
[4] = THP-1 cells, LPS primed, 0.8 mM BzATP, mature IL-1β by sandwich ELISA, read-out: hTHP-1/IL-ib IC50

human P2X7 receptor, sequence (Q99572 whole entry): as above

O=C(NCC1CCC(F)(F)CC1)c1cn(CC2CCCCN2)c2cccc(Cl)c12 (stereo not shown) [Compound 173, 4-chloro-N-((4,4-difluorocyclohexyl)methyl)-1-(piperidin-2-ylmethyl)-1H-indole-3-carboxamide]
pIC50 [1, 3]: > 8.00
pIC50 [2, 4]: > 8.00

O=C(NCC1CCC(F)(F)CC1)c1cn(CCN2CCCC2)c2cccc(Cl)c12 [Compound 179, 4-chloro-N-((4,4-difluorocyclohexyl)methyl)-1-(2-(pyrrolidin-1-yl)ethyl)-1H-indole-3-carboxamide]
pIC50 [1]: 6.30 to 7.00
pIC50 [2]: 6.30 to 7.00

O=C(NC[C@@]1(O)CCCC(F)(F)C1)c1cn(C2COC2)c2cccc(Cl)c12 [Compound 84, (R)-4-chloro-N-((3,3-difluoro-1-hydroxycyclohexyl)methyl)-1-(oxetan-3-yl)-1H-indole-3-carboxamide]
pIC50 [1]: 6.30 to 7.00
pIC50 [2]: 6.30 to 7.00

O=C(NCC1CCC(F)(F)CC1)c1cn(CC2CCOCC2)c2cccc(Cl)c12 [Compound 168, 4-chloro-N-((4,4-difluorocyclohexyl)methyl)-1-((tetrahydro-2H-pyran-4-yl)methyl)-1H-indole-3-carboxamide]
pIC50 [1]: 7.00 to 8.00
pIC50 [2]: 6.30 to 7.00

O=C(NCC1CCC(F)(F)CC1)c1cn(C[C@H]2CCCO2)c2cccc(Cl)c12 [Compound 135, (R)-4-chloro-N-((4,4-difluorocyclohexyl)methyl)-1-((tetrahydrofuran-2-yl)methyl)-1H-indole-3-carboxamide]
pIC50 [1]: 7.00 to 8.00
pIC50 [2]: 7.00 to 8.00

CCC1CCCC(O)(CNC(=O)c2cn(CCOC)c3cccc(Cl)c23)C1 (stereo not shown) [Compound 22, 4-chloro-N-((3-ethyl-1-hydroxycyclohexyl)methyl)-1-(2-methoxyethyl)-1H-indole-3-carboxamide]
pIC50 [1]: 6.30 to 7.00
pIC50 [2, 4]: < 6.00

O=C(NCC1(O)CCCC(F)(F)C1)c1cn(CC2CCCN2)c2cccc(Cl)c12 (stereo not shown) [Compound 155, 4-chloro-N-((3,3-difluoro-1-hydroxycyclohexyl)methyl)-1-(pyrrolidin-2-ylmethyl)-1H-indole-3-carboxamide]
pIC50 [1]: 7.00 to 8.00
pIC50 [2, 4]: > 8.00

O=C(NC[C@]1(O)CCCC(F)(F)C1)c1cn(CCN2CCCC2)c2cccc(Cl)c12 [Compound 177, (S)-4-chloro-N-((3,3-difluoro-1-hydroxycyclohexyl)methyl)-1-(2-(pyrrolidin-1-yl)ethyl)-1H-indole-3-carboxamide]
pIC50 [1]: 6.30 to 7.00
pIC50 [2]: 6.30 to 7.00

O=C(NCC1CCC(F)(F)CC1)c1cn(CC2CCCO2)c2cccc(Cl)c12 (stereo not shown) [Compound 144, 4-chloro-N-((4,4-difluorocyclohexyl)methyl)-1-((tetrahydrofuran-2-yl)methyl)-1H-indole-3-carboxamide]
pIC50 [1]: 7.00 to 8.00
pIC50 [2]: 6.30 to 7.00

O=C(NCC[C@@H]1C[C@@H]2C=C[C@H]1C2)c1cn(C2COC2)c2cccc(Cl)c12 [Compound 75, 4-Chloro-1-oxetan-3-yl-1H-indole-3-carboxylic acid ((1S,2S,4S)-2-bicyclo[2.2.1]hept-5-en-2-yl-ethyl)-amide]
pIC50 [1, 3]: > 8.00
pIC50 [2]: 7.00 to 8.00

C[C@H]1CCC[C@@](O)(CNC(=O)c2cn(CCC(F)F)c3cccc(Cl)c23)C1 [Compound 7]
pIC50 [1, 3]: > 8.00
pIC50 [2]: 7.00 to 8.00

O=C(NCC1(O)CCCC(F)(F)C1)c1cn(C[C@H]2CCCO2)c2cccc(Cl)c12 (stereo partly drawn) [Compound 133, 4-chloro-N-((3,3-difluoro-1-hydroxycyclohexyl)methyl)-1-(((R)-tetrahydrofuran-2-yl)methyl)-1H-indole-3-carboxamide]
pIC50 [1]: 7.00 to 8.00
pIC50 [2]: 7.00 to 8.00

COCCn1cc(C(=O)NCCc2cccs2)c2c(Cl)cccc21 [Compound 30, 4-Chloro-1-(2-methoxy-ethyl)-1H-indole-3-carboxylic acid (2-thiophen-2-yl-ethyl)-amide]
pIC50 [1]: 7.00 to 8.00
pIC50 [2]: 6.30 to 7.00

COCCn1cc(C(=O)NCC(C)c2ccccc2Cl)c2c(Cl)cccc21 (stereo not shown) [Compound 33, 4-chloro-N-(2-(2-chlorophenyl)propyl)-1-(2-methoxyethyl)-1H-indole-3-carboxamide]
pIC50 [1]: 6.30 to 7.00
pIC50 [2, 4]: < 6.00

O=C(NCC1(O)CCC(F)(F)CC1)c1cn(C[C@H]2CCCO2)c2cccc(Cl)c12 [Compound 131, (R)-4-chloro-N-((4,4-difluoro-1-hydroxycyclohexyl)methyl)-1-((tetrahydrofuran-2-yl)methyl)-1H-indole-3-carboxamide]
pIC50 [1]: 7.00 to 8.00
pIC50 [2]: 7.00 to 8.00

COCCn1cc(C(=O)NCC2(c3ccccc3)CCCCC2)c2c(Cl)cccc21 [Compound 39, 4-chloro-1-(2-methoxyethyl)-N-((1-phenylcyclohexyl)methyl)-1H-indole-3-carboxamide]
pIC50 [1]: 7.00 to 8.00
pIC50 [2]: 6.30 to 7.00

NCCn1cc(C(=O)NCC2CCC(F)(F)CC2)c2c(Cl)cccc21 [Compound 6, 1-(2-aminoethyl)-4-chloro-N-((4,4-difluorocyclo-hexyl)methyl)-1H-indole-3-carboxamide]
pIC50 [1]: 6.30 to 7.00
pIC50 [2]: 7.00 to 8.00

O=C(NCC1CCC(F)(F)CC1)c1cn(CC2CCCCO2)c2cccc(Cl)c12 (stereo not shown) [Compound 167, 4-chloro-N-((4,4-difluorocyclohexyl)methyl)-1-((tetrahydro-2H-pyran-2-yl)methyl)-1H-indole-3-carboxamide]
pIC50 [1]: 7.00 to 8.00
pIC50 [2]: 7.00 to 8.00

CC1CC(O)(CNC(=O)c2cn(C3CCOC3)c3cccc(Cl)c23)CCC1(F)F (stereo not shown) [Compound 106, 4-Chloro-1-(tetrahydro-furan-3-yl)-1H-indole-3-carboxylic acid (4,4-difluoro-1-hydroxy-3-methyl-cyclohexylmethyl)-amide]
pIC50 [1]: 6.00 to 6.30
pIC50 [2]: 6.30 to 7.00

O=C(NCC1CCCC(C(F)(F)F)C1)c1cn(C2COC2)c2cccc(Cl)c12 (stereo not shown) [Compound 56, 4-Chloro-1-oxetan-3-yl-1H-indole-3-carboxylic acid (3-trifluoromethyl-cyclohexylmethyl)-amide]
pIC50 [1]: 7.00 to 8.00
pIC50 [2]: 6.30 to 7.00

O=C(NCC1(O)CCC(F)(F)CC1)c1cn(CC2CCO2)c2cccc(Cl)c12 (stereo not shown) [Compound 115, 4-chloro-N-((4,4-difluoro-1-hydroxycyclohexyl)methyl)-1-(oxetan-2-ylmethyl)-1H-indole-3-carboxamide]
pIC50 [1]: 6.30 to 7.00
pIC50 [2]: 6.30 to 7.00

O=C(NC[C@H]1CCCC[C@H]1O)c1cn(C2COC2)c2cccc(Cl)c12 [Compound 88, cis-4-Chloro-1-oxetan-3-yl-1H-indole-3-carboxylic acid ((1R,2R)-2-hydroxy-cyclohexylmethyl)-amide]
pIC50 [1]: 6.30 to 7.00
pIC50 [2, 4]: < 6.00

O=C(NCC1CCC(F)(F)CC1)c1cn(CC2CCCN2C2CC2)c2cccc(Cl)c12 (stereo not shown) [Compound 197, 4-chloro-1-((1-cyclopropylpyrrolidin-2-yl)methyl)-N-((4,4-difluorocyclohexyl)methyl)-1H-indole-3-carboxamide]
pIC50 [1]: 7.00 to 8.00
pIC50 [2]: 7.00 to 8.00

CN1CCOC(Cn2cc(C(=O)NCC3CCC(F)(F)CC3)c3c(Cl)cccc32)C1 (stereo not shown) [Compound 183, 4-chloro-N-((4,4-difluorocyclohexyl)methyl)-1-((4-methylmorpholin-2-yl)methyl)-1H-indole-3-carboxamide]
pIC50 [1]: 7.00 to 8.00
pIC50 [2]: 7.00 to 8.00

O=C(NCC1CCC(F)(F)CC1)c1cn(CC2CCNC2)c2cccc(Cl)c12 (stereo not shown) [Compound 160]
pIC50 [1]: 6.30 to 7.00
pIC50 [2]: 6.30 to 7.00

O=C(NCC1CCCCC1)c1cn(C2COC2)c2cccc(Cl)c12 [Compound 48, 4-chloro-N-(cyclohexylmethyl)-1-(oxetan-3-yl)-1H-indole-3-carboxamide]
pIC50 [1]: 6.30 to 7.00
pIC50 [2]: 6.30 to 7.00

O=C(NCC1(O)CCCC(F)(F)C1)c1cn(C2CCNC2)c2cccc(Cl)c12 (stereo not shown) [Compound 120, 4-chloro-N-((3,3-difluoro-1-hydroxycyclohexyl)methyl)-1-(pyrrolidin-3-yl)-1H-indole-3-carboxamide]
pIC50 [1]: 7.00 to 8.00
pIC50 [2]: 7.00 to 8.00

O=C(NCC1CC(C(F)(F)F)CC(F)(F)C1)c1cn(CC2CCCO2)c2cccc(Cl)c12 (stereo not shown) [Compound 141, 4-chloro-N-((3,3-difluoro-5-(trifluoromethyl)cyclo-hexyl)methyl)-1-((tetrahydrofuran-2-yl)methyl)-1H-indole-3-carboxamide]
pIC50 [1]: 7.00 to 8.00
pIC50 [2]: 7.00 to 8.00

CN(C)C(CNC(=O)c1cn(C2CCOC2)c2cccc(Cl)c12)C1CCCCC1 (stereo not shown) [Compound 111, 4-Chloro-1-(tetrahydro-furan-3-yl)-1H-indole-3-carboxylic acid (2-cyclohexyl-2-dimethylamino-ethyl)-amide]
pIC50 [1, 3]: < 6.00

O=C(NCC1(O)CCCC(C(F)(F)F)C1)c1cn(CC2CCCO2)c2cccc(Cl)c12 (stereo not shown) [Compound 136, 4-chloro-N-((1-hydroxy-3-(trifluoromethyl)cyclohexyl)methyl)-1-((tetrahydrofuran-2-yl)methyl)-1H-indole-3-carboxamide]
pIC50 [1, 3]: < 6.00
